The values below come from US6979471B1, “Composition comprising pharmaceutical/nutraceutical agent and a bio-enhancer obtained from Glycyrrhiza glabra” (Council of Scientific and Industrial Research, priority 2000, dated 2005).

Common to all, as to assay type: cell-based
For assay [1], the system named is Candida albicans (ATCC 10231). Nature of the assay: Disc diffusion assay, antifungal agent against Candida albicans. As for the experimental part: (§1) • a) The minimum inhibitory concentration (MIC) of any antibiotic or drug molecule is determined against Escherichia coli (ATCC 10536), Bacillus subtilis (ATCC 6015) and Mycobacterium smegmatis (ATCC 14468) and Candida albicans (ATCC 10231) in broth and disc diffusion assays. • b) The antibiotics or antifungal agents at concentrations 1/10, ⅛, ⅙, ¼, ⅓, ½ and equal to MIC are added alone and in combination with the test compound at varying concentrations in broth assays to evaluate the comparative level of inhibition and similarly at varying concentrations in disc diffusion assay. • c) The combinations showing enhancement in terms of higher activity than antibiotic alone for the inhibition of bacterial growth (large inhibition zone in disc diffusion and higher killing at lower concentration in broth assay) are picked up for future testing. • d) In broth assays the activity is quantified by counting number of viable cells in a given treatment and converted in fold enhancement by the combination treatment compared to antibiotic/drug alone in the killing percentage of cells. • e) The pretreatment assay is followed to determine whether the bioenhancer which may be either an extract obtained from the plant Glycyrrhiza glabra, glycyrrhizin or glycyrrhizic acid, is required along with antibiotic to enhance its activity or even its withdrawal after treatment or prior to antibiotic treatment would benefit. […] Assay for Bio-Enhancement of Anti-Cancer Agents • a) MCF-7 (Breast cancer cell line is inoculated at a density of about 0.1×10^6 cells in MEM medium in the wells of 24 well plate. • b) The used up medium in these cultures is replaced with fresh medium after 18 hours in each well. • c) The test compound (s) is added at desired concentrations in different wells just after the medium replacement. • d) Observations are recorded on the cell count after 36 hours for which the following steps are required. • i. […] The number of viable cells is counted in 5 big squares and the reading is taken from 5 microscopic fields to determine the average. • viii. […]
(A growth-free zone around the sample is the usual read-out of agar diffusion tests.)

Another assay deals with Mycobacterium smegmatis. Kind of assay: Disc diffusion assay against Mycobacterium smegmatis. As to conditions: Mycolicibacterium smegmatis; read-out: Net zone of inhibition. The method, then: as §1
The next assay has as its system Escherichia coli. Nature of the assay: Disc diffusion assay against Escherichia coli. As to conditions: Escherichia coli; read-out: Net zone of inhibition. The method, then: as §1
Assay [2] relates to Mycobacterium smegmatis (ATCC 14468). Kind of assay: Broth assay for bio-enhancement of antibiotics: viable cell count, Mycobacterium smegmatis. Particulars: Table 3; for *Folds enhancement in antibiotic activity (a/b): glycyrrhizin 1 μg/ml. The method, then: (§2) For this, the cells are treated with the bioenhancer/compound for 4 to 8 hours and then washed free of it by centrifugation and washing in sterile water. […] 2. Assay for Bio-Enhancement of Anti-Cancer Agents • a) MCF-7 (Breast cancer cell line is inoculated at a density of about 0.1×10^6 cells in MEM medium in the wells of 24 well plate. • b) The used up medium in these cultures is replaced with fresh medium after 18 hours in each well. • c) The test compound (s) is added at desired concentrations in different wells just after the medium replacement. • d) Observations are recorded on the cell count after 36 hours for which the following steps are required. • i. The medium is removed from the wells. • ii. The wells are rinsed with 1 ml PBS (Phosphate buffer saline). • iii. To each well 500 μl of freshly prepared trypsin solution (0.1% in PBS) is added. • iv. Trypsin solution is removed after 30 seconds and the plate is gently tapped till the cells are released from the plate surface. • v. Fresh 1 ml of MEM growth medium is added and agitated with a pipette to obtain a cell suspension. • vi. 10 μl of cell suspension is taken on the haemocytometer and a cover glass is placed over the counting chamber. • vii. The number of viable cells is counted in 5 big squares and the reading is taken from 5 microscopic fields to determine the average. • viii. The cell count (titre per ml) in the original sample is then calculated as average count×10^3. Composition of Minimum Essential Medium (MEM): 100 ml
(§3) In the next step of elucidation of the enhancer action the applicants experimented with the killing activities of different antibiotics against the bacteria singly and in combination with the test compound glycyrrhizin following the method described above. These experiments are to be considered with assay for bioenhancement of the compounds glycyrrhizin/glycyrrhizic acid and licorice, as described earlier. […] In all the experiments the glycyrrhizin concentration was kept at 1 μg/ml, unless it is specifically mentioned.

In assay [3] the test system is Bacillus subtilis (ATCC 6015). Kind of assay: Broth assay for bio-enhancement of antibiotics: viable cell count, Bacillus subtilis. As for the experimental part:
as §3

Assay [4] concerns Escherichia coli (ATCC 10536). Nature of the assay: Broth assay for bio-enhancement of antibiotics: viable cell count, Escherichia coli. Particulars: Table 1; for *Folds enhancement in antibiotic activity (a/b): glycyrrhizin 1 μg/ml.
Assay [5] relates to MCF-7 (Breast cancer cell line). Kind of assay: Assay for bio-enhancement of anti-cancer agents: viable cell count after 36 hours. Particulars: for Final titre of viable cells upon treatment with taxol-glycyrrhizin combination / Final titre of viable cells upon treatment with taxol alone: initial titre 0.1 × 10^6, 36 hours. The method, then:
as §2

The mark [6] stands for this setting: antibiotic 4 μg/ml + glycyrrhizin 1 μg/ml.
The mark [7] stands for this setting: antibiotic 8 μg/ml + glycyrrhizin 1 μg/ml.

As a reminder, the zone of inhibition is the size of the clear area around the sample on an inoculated plate. Turning to `Clc1ccccc1C(c1ccccc1)(c1ccccc1)n1ccnc1` [Clotrimazole], the zone of inhibition at 4 µg/disc in assay [1] (Candida albicans, ATCC10231, clotrimazole 4 μg/disc alone, glycyrrhizin 0) stood at 7 mm. In addition, the Zone of inhibition in assay [1] (clotrimazole 4 μg/disc + glycyrrhizin 1 μg/disc) is on record as 11 mm.
Regarding `CC1(C)[C@@H](O[C@H]2O[C@H](C(=O)O)[C@@H](O)[C@H](O)[C@H]2O[C@@H]2O[C@H](C(=O)O)[C@@H](O)[C@H](O)[C@H]2O)CC[C@]2(C)[C@H]3C(=O)C=C4[C@@H]5C[C@@](C)(C(=O)O)CC[C@]5(C)CC[C@@]4(C)[C@]3(C)CC[C@@H]12` [Glycyrrhizic acid], the zone of inhibition at 4 µg/disc in the assay on Mycobacterium smegmatis and in the assay on Escherichia coli was 0 mm in each case.
For the molecule `CN(C)[C@@H]1C(O)=C(C(N)=O)C(=O)[C@@]2(O)C(O)=C3C(=O)c4c(O)cccc4[C@@](C)(O)[C@H]3C[C@@H]12` [Tetracycline], the “Survival fraction of viable cells upon treatment with antibiotic alone (a)” value (“Survival fraction … (a)” below) is reported as 0.3 in assay [2] (antibiotic 0.5 μg/ml); 0.10 in assay [3] (Table 2, antibiotic 1 μg/ml); 0.42 in assay [4] (antibiotic 2 μg/ml); 0.27 in assay [4] (antibiotic 4 μg/ml). The “Survival fraction of viable cells upon treatment with antibiotic- glycyrrhizin combination (b)” value in assay [2] (antibiotic 0.5 μg/ml + glycyrrhizin 1 μg/ml) is reported as 0.2; in assay [3] (Table 2, antibiotic 1 μg/ml + glycyrrhizin 1 μg/ml), 0.02; in assay [4] (antibiotic 2 μg/ml + glycyrrhizin 1 μg/ml), 0.22; in assay [4] (setting [6]), 0.03. For the same molecule, the “*Folds enhancement in antibiotic activity (a/b)” value (“*Folds enhancement” for short) in assay [2] (antibiotic 0.5 μg/ml) worked out at 1.5 folds; in assay [3] (Table 2, antibiotic 1 μg/ml, glycyrrhizin 1 μg/ml), 5.00 folds; in assay [4] (antibiotic 2 μg/ml), 1.9 folds; in assay [4] (antibiotic 4 μg/ml), 9.0 folds.
Turning to `CC1(C)S[C@@H]2[C@H](NC(=O)[C@H](N)c3ccccc3)C(=O)N2[C@H]1C(=O)O` [Ampicillin], the “Survival fraction … (a)” value in assay [4] (antibiotic 6 μg/ml) was determined as 0.38; in assay [4] (antibiotic 8 μg/ml) it was 0.013. The “Survival fraction of viable cells upon treatment with antibiotic- glycyrrhizin combination (b)” value turned out to be 0.03 in assay [4] (antibiotic 6 μg/ml + glycyrrhizin 1 μg/ml) and 0.006 in assay [4] (setting [7]). Further, the “*Folds enhancement” value in assay [4] (antibiotic 6 μg/ml) came out at 12.6 folds; in assay [4] (antibiotic 8 μg/ml) it was 2.1 folds.
As to `CC(=O)O[C@H]1C(=O)[C@@]2(C)[C@H]([C@H](OC(=O)c3ccccc3)[C@]3(O)C[C@H](OC(=O)[C@H](O)[C@@H](NC(=O)c4ccccc4)c4ccccc4)C(C)=C1C3(C)C)[C@]1(OC(C)=O)CO[C@@H]1C[C@@H]2O` [Taxol, Paclitaxel (Taxol)], in assay [5] (Taxol 0.01 μg/ml + glycyrrhizin 1 μg/ml versus taxol 0.05 μg/ml alone), the “Cancerous cells growth inhibition by Taxol in presence of glycyrrhizin, compared with taxol alone” value is given as “higher than even the treatment with taxol (@ 0.05 μg/ml) alone”. Further, the results for the “Final titre of viable cells upon treatment with taxol-glycyrrhizin combination” value in assay [5] (taxol 0.01 μg/ml + glycyrrhizin 1 μg/ml), in assay [5] (taxol 0.02 μg/ml + glycyrrhizin 1 μg/ml) and in assay [5] (taxol 0.05 μg/ml + glycyrrhizin 1 μg/ml) were 0.025 × 10^6 per ml, 0.024 × 10^6 per ml and 0.021 × 10^6 per ml, respectively. Besides, the “Final titre of viable cells upon treatment with taxol alone” value in assay [5] (taxol 0.01 μg/ml) is given as 0.05 × 10^−6 per ml; in assay [5] (taxol 0.02 μg/ml), 0.04 × 10^−6 per ml; in assay [5] (taxol 0.05 μg/ml), 0.03 × 10^−6 per ml. For the same molecule, the “Enhancement of anticancerous activity (inhibiting growth and multiplication of MCF-7 cells) by glycyrrhizin” value in assay [5] (taxol with glycyrrhizin 1 μg/ml) was “at least 5 folds”.
Consider `CCn1cc(C(=O)O)c(=O)c2ccc(C)nc21` [Nalidixic acid], for which the “Survival fraction … (a)” value in assay [2] (antibiotic 4 μg/ml) is 0.70; in assay [3] (Table 2, antibiotic 6 μg/ml), 0.50; in assay [3] (Table 2, antibiotic 8 μg/ml), 0.27; in assay [3] (Table 11, antibiotic 6 μg/ml), 0.500; in assay [4] (antibiotic 8 μg/ml), 0.19. Besides, the “Survival fraction of viable cells upon treatment with antibiotic- glycyrrhizin combination (b)” value in assay [2] (setting [6]) amounted to 0.12; in assay [3] (Table 2, antibiotic 6 μg/ml + glycyrrhizin 1 μg/ml), 0.11; in assay [3] (Table 2, antibiotic 8 μg/ml + glycyrrhizin 1 μg/ml), 0.04; in assay [4] (setting [7]) it was 0.02. In addition, the “*Folds enhancement” value in assay [2] (antibiotic 4 μg/ml) is listed as 7.7 folds; in assay [3] (Table 2, antibiotic 6 μg/ml, glycyrrhizin 1 μg/ml) it was 4.50 folds; in assay [3] (Table 2, antibiotic 8 μg/ml, glycyrrhizin 1 μg/ml), 6.75 folds; in assay [3] (Table 11, antibiotic 6 μg/ml, licorice 25 μg/ml) it was 4.10 folds; in assay [4] (antibiotic 8 μg/ml) it was 9.5 folds. The “Survival fraction of viable cells upon treatment with antibiotic glycyrrhizic acid combination (b)” value in assay [3] (Table 11, antibiotic 6 μg/ml + licorice 25 μg/ml) is 0.121.
